Assay results taken from ChEMBL document CHEMBL3991601, “The target landscape of clinical kinase drugs” (Science, 2017).
Calls of active or inactive are those of the source.

What was measured:
Wee1-like protein kinase = Wee1-like protein kinase (Homo sapiens, UniProt P30291)
[1] = biological target: Serine/threonine-protein kinase 26 (Homo sapiens, UniProt Q9P289)
[2] = biological target: T1, Serine/threonine-protein kinase Nek1 (Homo sapiens, UniProt Q96PY6)
T1 sequence (Q96PY6 whole entry): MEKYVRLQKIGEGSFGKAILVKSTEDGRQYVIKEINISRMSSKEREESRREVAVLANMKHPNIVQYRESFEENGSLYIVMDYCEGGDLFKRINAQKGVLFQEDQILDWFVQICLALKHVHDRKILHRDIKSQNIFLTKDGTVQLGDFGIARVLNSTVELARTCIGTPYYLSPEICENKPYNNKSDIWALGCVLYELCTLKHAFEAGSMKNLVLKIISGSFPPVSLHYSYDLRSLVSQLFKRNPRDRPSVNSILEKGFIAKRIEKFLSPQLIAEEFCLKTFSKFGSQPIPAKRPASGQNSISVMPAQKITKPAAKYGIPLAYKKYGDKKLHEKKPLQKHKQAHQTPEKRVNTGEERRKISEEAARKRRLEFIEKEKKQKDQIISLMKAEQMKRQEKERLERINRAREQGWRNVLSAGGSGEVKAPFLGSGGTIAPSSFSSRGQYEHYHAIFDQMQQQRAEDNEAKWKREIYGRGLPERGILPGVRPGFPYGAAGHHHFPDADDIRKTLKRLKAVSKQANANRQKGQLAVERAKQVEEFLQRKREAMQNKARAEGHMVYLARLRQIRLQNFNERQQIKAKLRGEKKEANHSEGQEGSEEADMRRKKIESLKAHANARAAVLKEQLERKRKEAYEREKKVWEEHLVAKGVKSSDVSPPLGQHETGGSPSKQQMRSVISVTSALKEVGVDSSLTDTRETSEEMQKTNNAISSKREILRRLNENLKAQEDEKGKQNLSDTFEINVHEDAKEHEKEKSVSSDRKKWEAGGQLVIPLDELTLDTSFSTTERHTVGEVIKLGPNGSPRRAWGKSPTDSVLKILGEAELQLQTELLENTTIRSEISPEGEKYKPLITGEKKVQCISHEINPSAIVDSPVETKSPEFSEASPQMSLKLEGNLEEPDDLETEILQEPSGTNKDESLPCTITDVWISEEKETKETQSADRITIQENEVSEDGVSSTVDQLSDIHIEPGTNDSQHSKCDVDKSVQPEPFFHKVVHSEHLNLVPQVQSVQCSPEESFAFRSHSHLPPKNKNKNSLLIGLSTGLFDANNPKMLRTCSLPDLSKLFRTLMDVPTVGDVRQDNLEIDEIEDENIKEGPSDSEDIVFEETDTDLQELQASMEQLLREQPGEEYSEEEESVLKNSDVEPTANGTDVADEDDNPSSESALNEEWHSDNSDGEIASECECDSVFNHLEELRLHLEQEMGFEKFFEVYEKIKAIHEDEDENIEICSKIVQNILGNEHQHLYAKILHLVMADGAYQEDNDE

Activin receptor type-2B = Activin receptor type-2B (Homo sapiens, UniProt Q13705)
Activin receptor type-2B, sequence (Q13705 whole entry): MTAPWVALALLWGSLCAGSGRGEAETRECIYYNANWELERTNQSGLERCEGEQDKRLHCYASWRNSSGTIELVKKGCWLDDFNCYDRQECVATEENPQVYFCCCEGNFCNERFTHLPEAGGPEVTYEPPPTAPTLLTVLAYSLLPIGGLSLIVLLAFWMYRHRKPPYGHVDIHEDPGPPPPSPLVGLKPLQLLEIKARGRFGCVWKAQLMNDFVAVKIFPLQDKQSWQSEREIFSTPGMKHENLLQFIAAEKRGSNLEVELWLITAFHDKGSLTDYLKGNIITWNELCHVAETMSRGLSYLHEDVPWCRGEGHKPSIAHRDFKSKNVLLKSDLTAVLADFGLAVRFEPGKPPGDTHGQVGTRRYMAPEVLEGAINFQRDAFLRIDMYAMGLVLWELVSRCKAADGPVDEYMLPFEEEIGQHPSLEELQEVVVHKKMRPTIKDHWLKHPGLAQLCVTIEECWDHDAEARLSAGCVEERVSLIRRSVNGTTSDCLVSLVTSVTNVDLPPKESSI

[3] = biological target: Tyrosine-protein kinase ABL1 (Homo sapiens, UniProt P00519)
Tyrosine-protein kinase ABL1, sequence (P00519 whole entry): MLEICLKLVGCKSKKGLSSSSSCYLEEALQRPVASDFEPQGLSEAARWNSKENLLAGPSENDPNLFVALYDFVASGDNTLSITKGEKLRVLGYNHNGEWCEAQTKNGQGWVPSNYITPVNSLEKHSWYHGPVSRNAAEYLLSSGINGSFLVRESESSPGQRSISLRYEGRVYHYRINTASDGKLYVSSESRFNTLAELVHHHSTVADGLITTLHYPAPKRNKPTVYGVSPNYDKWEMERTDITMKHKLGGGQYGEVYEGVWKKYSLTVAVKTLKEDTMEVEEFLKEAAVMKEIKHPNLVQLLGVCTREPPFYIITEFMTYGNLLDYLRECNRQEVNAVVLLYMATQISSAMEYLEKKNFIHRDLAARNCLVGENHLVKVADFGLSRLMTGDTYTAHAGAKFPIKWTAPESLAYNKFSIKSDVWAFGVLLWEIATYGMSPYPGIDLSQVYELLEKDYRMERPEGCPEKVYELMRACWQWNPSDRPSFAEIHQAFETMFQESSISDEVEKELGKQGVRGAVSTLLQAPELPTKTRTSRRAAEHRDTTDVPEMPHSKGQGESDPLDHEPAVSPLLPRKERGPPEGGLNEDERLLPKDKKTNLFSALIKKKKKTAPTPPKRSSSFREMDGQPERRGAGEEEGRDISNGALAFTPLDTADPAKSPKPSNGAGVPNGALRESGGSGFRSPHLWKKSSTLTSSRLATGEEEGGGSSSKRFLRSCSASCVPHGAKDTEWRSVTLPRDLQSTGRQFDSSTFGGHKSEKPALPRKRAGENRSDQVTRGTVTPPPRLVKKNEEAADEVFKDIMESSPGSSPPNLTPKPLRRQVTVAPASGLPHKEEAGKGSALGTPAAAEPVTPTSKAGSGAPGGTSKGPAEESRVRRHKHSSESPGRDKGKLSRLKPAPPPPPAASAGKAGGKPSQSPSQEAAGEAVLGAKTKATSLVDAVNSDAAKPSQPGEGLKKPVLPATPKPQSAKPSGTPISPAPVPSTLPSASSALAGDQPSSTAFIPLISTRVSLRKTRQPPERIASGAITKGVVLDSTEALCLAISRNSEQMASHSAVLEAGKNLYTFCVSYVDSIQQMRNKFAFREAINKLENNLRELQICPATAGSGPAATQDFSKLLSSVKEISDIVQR

[4] = biological target: T2, Serine/threonine-protein kinase 3 (Homo sapiens, UniProt Q13188)
T2 sequence (Q13188 whole entry): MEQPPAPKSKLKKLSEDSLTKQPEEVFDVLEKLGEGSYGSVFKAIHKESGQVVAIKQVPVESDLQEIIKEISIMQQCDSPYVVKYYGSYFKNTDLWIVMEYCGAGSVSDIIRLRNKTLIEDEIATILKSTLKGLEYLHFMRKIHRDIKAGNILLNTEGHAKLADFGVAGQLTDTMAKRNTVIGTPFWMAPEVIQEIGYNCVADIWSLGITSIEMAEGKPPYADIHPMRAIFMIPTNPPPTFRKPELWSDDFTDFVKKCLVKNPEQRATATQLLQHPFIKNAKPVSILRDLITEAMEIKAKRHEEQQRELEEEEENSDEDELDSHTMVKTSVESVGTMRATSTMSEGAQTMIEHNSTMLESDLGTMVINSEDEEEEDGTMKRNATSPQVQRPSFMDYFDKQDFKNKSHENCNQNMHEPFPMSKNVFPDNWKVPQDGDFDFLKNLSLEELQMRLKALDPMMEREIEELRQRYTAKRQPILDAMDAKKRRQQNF

Glycine--tRNA ligase = biological target: T3, Glycine--tRNA ligase (Homo sapiens, UniProt P41250)
T3 sequence (P41250 whole entry): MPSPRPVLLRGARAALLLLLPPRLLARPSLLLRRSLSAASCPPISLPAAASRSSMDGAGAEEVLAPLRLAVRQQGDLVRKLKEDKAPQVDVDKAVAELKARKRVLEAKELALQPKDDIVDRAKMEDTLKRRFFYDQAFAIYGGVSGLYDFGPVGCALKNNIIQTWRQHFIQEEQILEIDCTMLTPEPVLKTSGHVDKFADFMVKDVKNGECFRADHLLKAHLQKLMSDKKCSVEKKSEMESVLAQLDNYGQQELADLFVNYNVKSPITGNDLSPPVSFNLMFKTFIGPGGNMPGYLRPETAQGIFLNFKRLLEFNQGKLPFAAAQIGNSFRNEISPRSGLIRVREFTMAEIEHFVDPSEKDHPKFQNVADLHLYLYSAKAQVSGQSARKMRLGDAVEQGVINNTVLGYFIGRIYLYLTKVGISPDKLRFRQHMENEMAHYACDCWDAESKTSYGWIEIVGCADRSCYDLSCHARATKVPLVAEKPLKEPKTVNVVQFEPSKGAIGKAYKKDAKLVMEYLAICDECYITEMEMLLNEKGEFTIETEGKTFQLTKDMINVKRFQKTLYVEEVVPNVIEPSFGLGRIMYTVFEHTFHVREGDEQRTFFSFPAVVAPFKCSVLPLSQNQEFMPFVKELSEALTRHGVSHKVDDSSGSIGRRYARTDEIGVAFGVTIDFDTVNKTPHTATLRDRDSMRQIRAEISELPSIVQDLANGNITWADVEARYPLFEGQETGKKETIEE

[5] = biological target: NADH dehydrogenase [ubiquinone] 1 alpha subcomplex subunit 13 (Homo sapiens, UniProt Q9P0J0)
NADH dehydrogenase [ubiquinone] 1 alpha subcomplex subunit 13, sequence (Q9P0J0 whole entry, one chain of several): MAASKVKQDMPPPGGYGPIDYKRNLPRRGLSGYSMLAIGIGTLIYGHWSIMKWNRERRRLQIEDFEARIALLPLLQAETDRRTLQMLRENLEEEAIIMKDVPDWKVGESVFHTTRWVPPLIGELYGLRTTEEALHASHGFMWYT
Also: in the data inactive means no Kd found up to 30 µM.

Wee1-like protein kinase, sequence (P30291 whole entry): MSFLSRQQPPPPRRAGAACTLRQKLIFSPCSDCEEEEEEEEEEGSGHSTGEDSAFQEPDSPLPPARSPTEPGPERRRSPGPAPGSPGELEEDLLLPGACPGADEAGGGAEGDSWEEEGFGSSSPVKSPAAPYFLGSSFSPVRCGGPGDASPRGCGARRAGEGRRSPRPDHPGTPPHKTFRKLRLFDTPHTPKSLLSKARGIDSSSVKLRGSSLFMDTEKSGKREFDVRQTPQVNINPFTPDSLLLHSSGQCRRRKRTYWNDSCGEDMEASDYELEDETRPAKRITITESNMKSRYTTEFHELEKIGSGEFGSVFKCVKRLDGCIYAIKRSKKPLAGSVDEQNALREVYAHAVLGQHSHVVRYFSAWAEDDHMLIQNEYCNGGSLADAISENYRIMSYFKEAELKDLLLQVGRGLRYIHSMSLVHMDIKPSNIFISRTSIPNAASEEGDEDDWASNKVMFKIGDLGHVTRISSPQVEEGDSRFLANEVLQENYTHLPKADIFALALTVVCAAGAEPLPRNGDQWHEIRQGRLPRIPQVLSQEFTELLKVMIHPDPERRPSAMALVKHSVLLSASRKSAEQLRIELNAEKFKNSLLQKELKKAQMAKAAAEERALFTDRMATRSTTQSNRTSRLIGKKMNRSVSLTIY
Serine/threonine-protein kinase 26, sequence (Q9P289 whole entry): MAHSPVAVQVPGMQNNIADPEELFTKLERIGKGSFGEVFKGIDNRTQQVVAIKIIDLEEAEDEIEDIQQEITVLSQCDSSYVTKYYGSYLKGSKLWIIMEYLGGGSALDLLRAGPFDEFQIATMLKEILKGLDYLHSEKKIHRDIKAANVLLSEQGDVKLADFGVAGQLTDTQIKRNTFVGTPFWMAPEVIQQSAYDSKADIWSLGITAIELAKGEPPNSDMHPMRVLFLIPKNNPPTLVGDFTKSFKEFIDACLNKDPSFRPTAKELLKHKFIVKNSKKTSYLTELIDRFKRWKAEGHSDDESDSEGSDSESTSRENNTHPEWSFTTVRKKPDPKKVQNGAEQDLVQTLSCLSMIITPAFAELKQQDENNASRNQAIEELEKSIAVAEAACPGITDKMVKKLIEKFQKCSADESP

SMILES	Kd (Wee1-like protein kinase)	Kd [1]	Kd [2]	Kd (Activin receptor type-2B)	Kd [3]	Kd [4]	Kd (Glycine--tRNA ligase)	Kd [5]
CN1N=C(N)c2cn([C@@H]3O[C@H](COP(=O)(O)O)[C@@H](O)[C@H]3O)c3ncnc1c23 [TRICIRIBINE PHOSPHATE]	> 30 µM (inactive)	> 30 µM (inactive)	> 30 µM (inactive)	> 30 µM (inactive)	> 30 µM (inactive)	> 30 µM (inactive)	> 30 µM (inactive)	> 30 µM (inactive)
CNC(=O)c1cc(Oc2ccc(NC(=O)Nc3ccc(Cl)c(C(F)(F)F)c3)c(F)c2)ccn1 [REGORAFENIB]	> 30 µM (inactive)	> 30 µM (inactive)	> 30 µM (inactive)	> 30 µM (inactive)	0.753 µM (active)	> 30 µM (inactive)	> 30 µM (inactive)	> 30 µM (inactive)
CCCS(=O)(=O)Nc1ccc(F)c(C(=O)c2c[nH]c3ncc(-c4ccc(Cl)cc4)cc23)c1F [VEMURAFENIB]	> 30 µM (inactive)	> 30 µM (inactive)	> 30 µM (inactive)	> 30 µM (inactive)	> 30 µM (inactive)	> 30 µM (inactive)	> 30 µM (inactive)	> 30 µM (inactive)
Cc1cc2c(F)c(Oc3ncnn4cc(OC[C@@H](C)OC(=O)[C@H](C)N)c(C)c34)ccc2[nH]1 [BRIVANIB ALANINATE]	> 30 µM (inactive)	> 30 µM (inactive)	> 30 µM (inactive)	> 30 µM (inactive)	> 30 µM (inactive)	> 30 µM (inactive)	> 30 µM (inactive)	> 30 µM (inactive)
Cc1c(F)cc(C(=O)NC2CC2)cc1-c1ccc(C(=O)NCC(C)(C)C)cn1 [LOSMAPIMOD]	> 30 µM (inactive)	> 30 µM (inactive)	> 30 µM (inactive)	> 30 µM (inactive)	> 30 µM (inactive)	> 30 µM (inactive)	> 30 µM (inactive)	> 30 µM (inactive)
CCn1c(=O)c(-c2cc[nH]n2)cc2c(C)nc(N)nc21 [VOXTALISIB]	> 30 µM (inactive)	> 30 µM (inactive)	> 30 µM (inactive)	> 30 µM (inactive)	> 30 µM (inactive)	> 30 µM (inactive)	> 30 µM (inactive)	> 30 µM (inactive)
CC(=O)Nc1cccc(-n2c(=O)n(C3CC3)c(=O)c3c(Nc4ccc(I)cc4F)n(C)c(=O)c(C)c32)c1 [TRAMETINIB]	> 30 µM (inactive)	> 30 µM (inactive)	> 30 µM (inactive)	> 30 µM (inactive)	> 30 µM (inactive)	> 30 µM (inactive)	> 30 µM (inactive)	> 30 µM (inactive)

Next, values leading:

Kd (Wee1-like protein kinase)	Kd [1]	Kd [2]	Kd (Activin receptor type-2B)	Kd [3]	Kd [4]	Kd (Glycine--tRNA ligase)	Kd [5]	SMILES
> 30 µM (inactive)	> 30 µM (inactive)	> 30 µM (inactive)	> 30 µM (inactive)	> 30 µM (inactive)	> 30 µM (inactive)	> 30 µM (inactive)	> 30 µM (inactive)	O=C(Nc1ccc(-c2ccnc(Nc3ccc(N4CCOCC4)cc3)n2)cc1)C1CCCN1 (stereo not drawn) [XL-019]
> 30 µM (inactive)	> 30 µM (inactive)	> 30 µM (inactive)	> 30 µM (inactive)	5.26 µM (active)	> 30 µM (inactive)	> 30 µM (inactive)	> 30 µM (inactive)	COc1cc(N2CCC(N3CCN(C)CC3)CC2)ccc1Nc1ncnc(Nc2ccccc2S(=O)(=O)C(C)C)n1 [ASP-3026]
65.2 µM (active)	> 30 µM (inactive)	> 30 µM (inactive)	> 30 µM (inactive)	1.09 µM (active)	> 30 µM (inactive)	> 30 µM (inactive)	> 30 µM (inactive)	CCN1CCN(Cc2ccc(-c3cc4c(N[C@H](C)c5ccccc5)ncnc4[nH]3)cc2)CC1 [AEE-788]
> 30 µM (inactive)	> 30 µM (inactive)	> 30 µM (inactive)	> 30 µM (inactive)	> 30 µM (inactive)	> 30 µM (inactive)	> 30 µM (inactive)	> 30 µM (inactive)	O=C1NC(=O)/C(=C/c2ccc3nccc(-c4ccncc4)c3c2)S1 [GSK-1059615]
